Measured values reported in paper PMC9090415, “Discovery of small molecule inhibitors of Plasmodium falciparum apicoplast DNA polymerase” (Journal of Enzyme Inhibition and Medicinal Chemistry, 2022).

Target: P. falciparum apicoplast DNA polymerase (Pf-apPOL) (Plasmodium falciparum, UniProt Q8ILY1)
Test: Fluorescence-based high-throughput DNA polymerase assay (molecular beacon), primary screen and dose-response
Assay type: biochemical
Details: for DNA Pol: 90 min, 10 µM
Summary of the method: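 Single-point screening used 10 µM compound with 20 nM polymerase, 20 nM hairpin substrate and 6 µM dNTPs for 90 min at 25 °C. Confirmatory titrations (2.5–80 µM) followed fluorescence at three times, and IC50 was derived from a fit including a cooperativity term n.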

[1] = primary screen value by plate and well
[2] = primary screen value of the 186 hits, unit not given

Chain of P. falciparum apicoplast DNA polymerase (Pf-apPOL) (Q8ILY1 entry or part of it): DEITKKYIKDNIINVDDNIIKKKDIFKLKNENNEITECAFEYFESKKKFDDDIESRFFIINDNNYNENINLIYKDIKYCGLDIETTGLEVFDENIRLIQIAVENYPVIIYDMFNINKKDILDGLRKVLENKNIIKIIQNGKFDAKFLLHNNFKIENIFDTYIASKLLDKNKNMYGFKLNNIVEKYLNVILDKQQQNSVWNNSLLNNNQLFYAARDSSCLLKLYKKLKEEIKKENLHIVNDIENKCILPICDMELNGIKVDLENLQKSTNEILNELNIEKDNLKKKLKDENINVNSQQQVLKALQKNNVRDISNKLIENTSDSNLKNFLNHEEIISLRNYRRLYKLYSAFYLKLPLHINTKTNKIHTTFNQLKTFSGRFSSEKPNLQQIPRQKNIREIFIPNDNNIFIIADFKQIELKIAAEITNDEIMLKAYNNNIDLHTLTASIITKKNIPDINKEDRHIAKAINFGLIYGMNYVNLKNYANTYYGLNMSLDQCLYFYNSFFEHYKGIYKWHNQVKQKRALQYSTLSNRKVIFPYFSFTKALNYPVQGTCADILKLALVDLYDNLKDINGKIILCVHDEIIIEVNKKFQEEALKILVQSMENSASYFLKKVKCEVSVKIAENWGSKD

Structure (SMILES): CC(=O)Nc1cc(C(=O)NC(C)C)c2ccc(C)nc2c1 [KU0206312]
- % inhibition Apo pol 10' (DRC-1, concentration 2.5): -0.09953%
- % inhibition Apo pol 10' (DRC-1, concentration 5): 7.573%
- % inhibition Apo pol 10' (DRC-1, concentration 10): 27.7087%
- % inhibition Apo pol 10' (DRC-1, concentration 20): 47.6334%
- % inhibition Apo pol 10' (DRC-1, concentration 40): 73.4276%
- % inhibition Apo pol 10' (DRC-1, concentration 80): 85.3418%
- % inhibition Apol 90' (DRC-1, concentration 2.5): -3.317%
- % inhibition Apol 90' (DRC-1, concentration 5): -1.224%
- % inhibition Apol 90' (DRC-1, concentration 10): 13.9494%
- % inhibition Apol 90' (DRC-1, concentration 20): 30.2375%
- % inhibition Apol 90' (DRC-1, concentration 40): 59.3171%
- % inhibition Apol 90' (DRC-1, concentration 80): 84.495%
- % inhibition apPOL 180' (DRC-1, concentration 2.5): -3.391%
- % inhibition apPOL 180' (DRC-1, concentration 5): -3.035%
- % inhibition apPOL 180' (DRC-1, concentration 10): 6.928%
- % inhibition apPOL 180' (DRC-1, concentration 20): 18.5029%
- % inhibition apPOL 180' (DRC-1, concentration 40): 47.7981%
- % inhibition apPOL 180' (DRC-1, concentration 80): 83.4711%
- % inhibition Apo pol 5' (DRC-2, concentration 2.5): 8%
- % inhibition Apo pol 5' (DRC-2, concentration 5): 15%
- % inhibition Apo pol 5' (DRC-2, concentration 10): 35%
- % inhibition Apo pol 5' (DRC-2, concentration 20): 45%
- % inhibition Apo pol 5' (DRC-2, concentration 40): 47%
- % inhibition Apo pol 5' (DRC-2, concentration 80): 43%
- % inhibition Apol 40' (DRC-2, concentration 2.5): 8%
- % inhibition Apol 40' (DRC-2, concentration 5): 13%
- % inhibition Apol 40' (DRC-2, concentration 10): 34%
- % inhibition Apol 40' (DRC-2, concentration 20): 51%
- % inhibition Apol 40' (DRC-2, concentration 40): 65%
- % inhibition Apol 40' (DRC-2, concentration 80): 67%
- % inhibition ApPOL 90' (DRC-2, concentration 2.5): 6.64%
- % inhibition ApPOL 90' (DRC-2, concentration 5): 11%
- % inhibition ApPOL 90' (DRC-2, concentration 10): 31%
- % inhibition ApPOL 90' (DRC-2, concentration 20): 50%
- % inhibition ApPOL 90' (DRC-2, concentration 40): 68%
- % inhibition ApPOL 90' (DRC-2, concentration 80): 73%
- % inhibition apPOL 180' (DRC-2, concentration 2.5): 2%
- % inhibition apPOL 180' (DRC-2, concentration 5): 5%
- % inhibition apPOL 180' (DRC-2, concentration 10): 20%
- % inhibition apPOL 180' (DRC-2, concentration 20): 41%
- % inhibition apPOL 180' (DRC-2, concentration 40): 67%
- % inhibition apPOL 180' (DRC-2, concentration 80): 78%
- % inhibition Apo pol 5' (conc. 2.5, DRC-2): 8%
- % inhibition Apol 40' (conc. 2.5, DRC-2): 8%
- % inhibition apPOL 180' (conc. 40, DRC-2): 67%
- % inhibition Apol 40' (conc. 80, DRC-2): 67%
- DNA Pol [1]: 32
- DNA Pol [2]: 32

Structure (SMILES): O=C1NCCCn2cc(S(=O)(=O)Nc3ccccc3)cc21 [KU0214835]
- % inhibition Apo pol 10' (DRC-1, concentration 2.5): 3.062%
- % inhibition Apo pol 10' (DRC-1, concentration 5): 6.352%
- % inhibition Apo pol 10' (DRC-1, concentration 10): 23.7327%
- % inhibition Apo pol 10' (DRC-1, concentration 20): 40.9778%
- % inhibition Apo pol 10' (DRC-1, concentration 40): 76.8886%
- % inhibition Apo pol 10' (DRC-1, concentration 80): 90.7287%
- % inhibition Apol 90' (DRC-1, concentration 2.5): -1.959%
- % inhibition Apol 90' (DRC-1, concentration 5): -0.5686%
- % inhibition Apol 90' (DRC-1, concentration 10): 11.8703%
- % inhibition Apol 90' (DRC-1, concentration 20): 23.2222%
- % inhibition Apol 90' (DRC-1, concentration 40): 60.7318%
- % inhibition Apol 90' (DRC-1, concentration 80): 88.5247%
- % inhibition apPOL 180' (DRC-1, concentration 2.5): -6.967%
- % inhibition apPOL 180' (DRC-1, concentration 5): -5.597%
- % inhibition apPOL 180' (DRC-1, concentration 10): 2.257%
- % inhibition apPOL 180' (DRC-1, concentration 20): 8.277%
- % inhibition apPOL 180' (DRC-1, concentration 40): 41.6614%
- % inhibition apPOL 180' (DRC-1, concentration 80): 83.4683%
- % inhibition Apo pol 5' (DRC-2, concentration 2.5): 5.45%
- % inhibition Apo pol 5' (DRC-2, concentration 5): 8%
- % inhibition Apo pol 5' (DRC-2, concentration 10): 25%
- % inhibition Apo pol 5' (DRC-2, concentration 20): 44%
- % inhibition Apo pol 5' (DRC-2, concentration 40): 53%
- % inhibition Apo pol 5' (DRC-2, concentration 80): 50%
- % inhibition Apol 40' (DRC-2, concentration 2.5): 7%
- % inhibition Apol 40' (DRC-2, concentration 5): 8%
- % inhibition Apol 40' (DRC-2, concentration 10): 24%
- % inhibition Apol 40' (DRC-2, concentration 20): 48%
- % inhibition Apol 40' (DRC-2, concentration 40): 66%
- % inhibition Apol 40' (DRC-2, concentration 80): 70%
- % inhibition ApPOL 90' (DRC-2, concentration 2.5): 5.66%
- % inhibition ApPOL 90' (DRC-2, concentration 5): 7%
- % inhibition ApPOL 90' (DRC-2, concentration 10): 21%
- % inhibition ApPOL 90' (DRC-2, concentration 20): 44%
- % inhibition ApPOL 90' (DRC-2, concentration 40): 66%
- % inhibition ApPOL 90' (DRC-2, concentration 80): 74%
- % inhibition apPOL 180' (DRC-2, concentration 2.5): 2%
- % inhibition apPOL 180' (DRC-2, concentration 5): 3.52%
- % inhibition apPOL 180' (DRC-2, concentration 10): 14%
- % inhibition apPOL 180' (DRC-2, concentration 20): 31%
- % inhibition apPOL 180' (DRC-2, concentration 40): 59%
- % inhibition apPOL 180' (DRC-2, concentration 80): 76%
- % inhibition Apol 40' (conc. 2.5, DRC-2): 7%
- % inhibition Apo pol 5' (conc. 5, DRC-2): 8%
- % inhibition Apol 40' (conc. 5, DRC-2): 8%
- % inhibition ApPOL 90' (conc. 5, DRC-2): 7%
- % inhibition Apo pol 5' (conc. 20, DRC-2): 44%
- % inhibition ApPOL 90' (conc. 20, DRC-2): 44%
- % inhibition Apol 40' (conc. 40, DRC-2): 66%
- % inhibition ApPOL 90' (conc. 40, DRC-2): 66%
- DNA Pol [1]: 21
- DNA Pol [2]: 21
